Data from PubChem BioAssay AID1963854 (Molecular Pharmacology Branch, DTP, NCI, 2024).
“And” between values parts separate entries of the source, which are not always exact repeats. Equal values may be shown once.

Tested on: 186277-243-T-J2-PDC complex spheroid viability
Experiment: Anticancer human tumor 186277-243-T-J2-PDC patient-derived colon adenocarcinoma cell line growth inhibition [POLQ]
Details: for viability, T/C: stronger effect = lower value
Protocol: Multicellular complex tumor spheroid response to Polymerase (POL) inhibitors (novobiocin, ART-558, RP6685) in combination with a variety of drugs and investigational agents in selected tumor cell lines
The POL inhibitors (novobiocin, ART-558, and RP6685) were evaluated both individually and in combination with standard of care and investigational anticancer small molecules within a complex spheroid model of solid tumors. . Complex spheroids include a stromal component modeled by human endothelial cells (HUVEC) and fibroblasts modeled by human mesenchymal stem cells (MSCs). The concentration ranges selected for each drug and investigational agent were based upon clinically achievable concentrations if the clinical Cmax of the agent was known.
Compounds. The drugs and investigational agents: novobiocin (NSC847541), ART-558 (NSC835418), RP-6685 (NSC848927), peposertib (NSC802822), ceralasertib (NSC780249), elimusertib (NSC800525), camonsertib (NSC841442), AZD-1390 (NSC803789), olaparib (NSC753686), talazoparib (NSC767125), rucaparib (NSC756644), sotorasib (NSC818433), MRTX-1133 (NSC836407), SN-38 (NSC673596), topotecan (NSC609699), epotoside (NSC141540), doxorubicin (NSC123127), gemcitabine (NSC613327), 5-fluorouracil (NSC19893), paclitaxel (NSC125973), vemurafenib (NSC761431), MSA-2 (NSC828583), SN-011 (NSC837082), adavosertib (NSC754352), prexasertib (NSC758257), carboplatin (NSC241240) and oxaliplatin (NSC266046), were obtained from the National Cancer Institute (NCI) Developmental Therapeutics Program Chemical Repository (21). The FDA-approved anticancer drug set is available from the Developmental Therapeutics Program at https://dtp.cancer.gov/organization/dscb/obtaining/. […] The stock solutions were prepared in dimethyl sulfoxide (DMSO, Sigma-Aldrich, St. Louis, MO, cat. D2650), except for the platinum compounds which were prepared in saline (Quality Biological, Gaithersburg, MD, cat. 114-055-101), at 800-fold the tested concentration and stored at -70 degrees C prior to their use. All drugs and investigational agents were tested over a range starting from a high concentration at or near the clinical Cmax and decreasing in half-log increments. If the clinical Cmax for an agent had not been determined, the highest concentration tested was 10 microM, except for SN-38, which was tested at a high concentration of 1 microM.
Cell Culture. All cells were maintained in an incubator at 37 degrees C and 5% CO2 with 95% humidity. The PDC lines were cultured according to standard operating procedures established by the NCI PDMR (https://pdmr.cancer.gov). Table 3 of the manuscript, lists the cell lines along with the number of the three cell types plated to form the mct-spheroids and media for tumor cell growth. After thawing, all PDC lines, except 997537-175-T-J1-PDC and 415267-285-R-J2-PDC, were cultured in Matrigel-coated flasks prepared with a working solution of 1X Ham's F-12 nutrient mix, without supplementation (Thermo Fisher Scientific, cat. 11765054), 100 U/mL penicillin-streptomycin (Thermo Fisher Scientific, cat. 15140122), and 2.5% Matrigel (Corning Inc., Corning, NY, cat. 354248) for the first three passages. The two PDC lines 997537-175-T-J1-PDC and 415267-285-R-J2-PDC were cultured on uncoated flasks. The 857933-349-R-J2-PDC line was cultured in 6C/Colon 1B media containing advanced DMEM/F-12 (Thermo Fisher Scientific, cat. 12634028), 10 mM HEPES (Thermo Fisher Scientific, cat. 15630080), 1X GlutaMAX supplement (Thermo Fisher Scientific, cat. 35050061), 0.1 mg/mL primocin (InvivoGen, San Diego, CA, cat. ant-pm-2), 10% defined fetal bovine serum, heat inactivated (HyClone Laboratories Inc., Logan, UT, cat. SH30070.03HI), 50% L-WRN conditioned media (ATCC, cat. CRL-3276), 1.25 mM N-Acetyl-L-cysteine (Sigma-Aldrich, cat. A9165), 10 mM nicotinamide (Sigma-Aldrich, cat. N0636), 1X B-27 supplement (Thermo Fisher Scientific, cat. 17504044), 1X N-2 supplement (Thermo Fisher Scientific, cat. […]

[1] = curve of first compound, second compound 0.0316 µM
[2] = curve of first compound, second compound 0.1 µM
[3] = curve of first compound, second compound 0.316 µM
[4] = curve of first compound, second compound 1 µM
[5] = curve of first compound, second compound 3.16 µM
[6] = curve of first compound, second compound 10 µM
[7] = second compound 0.0316 µM, first compound 0.0316 µM
[8] = second compound 0.0316 µM, first compound 0.1 µM
[9] = second compound 0.0316 µM, first compound 0.316 µM
[10] = second compound 0.0316 µM, first compound 1 µM
[11] = second compound 0.1 µM, first compound 0.0316 µM
[12] = second compound 0.1 µM, first compound 0.1 µM
[13] = second compound 0.1 µM, first compound 0.316 µM
[14] = second compound 0.1 µM, first compound 1 µM
[15] = second compound 0.316 µM, first compound 0.0316 µM
[16] = second compound 0.316 µM, first compound 0.1 µM
[17] = second compound 0.316 µM, first compound 0.316 µM
[18] = second compound 0.316 µM, first compound 1 µM
[19] = second compound 1 µM, first compound 0.0316 µM
[20] = second compound 1 µM, first compound 0.1 µM
[21] = second compound 1 µM, first compound 0.316 µM
[22] = second compound 1 µM, first compound 1 µM
[23] = second compound 3.16 µM, first compound 0.0316 µM
[24] = second compound 3.16 µM, first compound 0.1 µM
[25] = second compound 3.16 µM, first compound 0.316 µM
[26] = second compound 3.16 µM, first compound 1 µM
[27] = second compound 10 µM, first compound 0.0316 µM
[28] = second compound 10 µM, first compound 0.1 µM
[29] = second compound 10 µM, first compound 0.316 µM
[30] = second compound 10 µM, first compound 1 µM
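Also: spheroids exposed to compounds for seven days.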
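For viability, T/C in this document: 100% = DMSO vehicle control viability.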

## O=C(c1cc(Cc2n[nH]c(=O)c3ccccc23)ccc1F)N1CCN(C(=O)C2CC2)CC1
Compound 0.0316 µM
  viability, T/C: 92.4% and 106% and 120%
Compound 0.1 µM
  viability, T/C: 98.8% and 100% and 84.5%
Compound 0.316 µM
  viability, T/C: 103% and 102% and 101%
Compound 1 µM
  viability, T/C: 107% and 106% and 104%
Compound 3.16 µM
  viability, T/C: 110% and 111% and 128%
Compound 10 µM
  viability, T/C: 79.3% and 62% and 111%
Curve of compound
  IC50: > 10000 nM

## COc1cccc(OCCCN)c1-c1cc(Nc2cnc(C#N)cn2)n[nH]1 + COC1C(OC(N)=O)C(O)C(Oc2ccc3c(O)c(NC(=O)c4ccc(O)c(CC=C(C)C)c4)c(=O)oc3c2C)OC1(C)C
[1]
  IC50: < 3.16 nM
[2]
  IC50: < 3.16 nM
[3]
  IC50: < 3.16 nM
[4]
  IC50: < 3.16 nM
[5]
  IC50: < 3.16 nM
[6]
  IC50: < 3.16 nM
Second compound 0.0316 µM, first compound 0.00316 µM
  viability, T/C: 8.14%
Second compound 0.0316 µM, first compound 0.01 µM
  viability, T/C: 5.13%
[7]
  viability, T/C: 4.48%
[8]
  viability, T/C: 4.86%
[9]
  viability, T/C: 4.49%
[10]
  viability, T/C: 5.84%
Second compound 0.1 µM, first compound 0.00316 µM
  viability, T/C: 9.53%
Second compound 0.1 µM, first compound 0.01 µM
  viability, T/C: 5.58%
[11]
  viability, T/C: 4.93%
[12]
  viability, T/C: 4.32%
[13]
  viability, T/C: 4.26%
[14]
  viability, T/C: 5.58%
Second compound 0.316 µM, first compound 0.00316 µM
  viability, T/C: 9.04%
Second compound 0.316 µM, first compound 0.01 µM
  viability, T/C: 5.2%
[15]
  viability, T/C: 5.3%
[16]
  viability, T/C: 4.89%
[17]
  viability, T/C: 4.61%
[18]
  viability, T/C: 5.48%
Second compound 1 µM, first compound 0.00316 µM
  viability, T/C: 8.31%
Second compound 1 µM, first compound 0.01 µM
  viability, T/C: 6.44%
[19]
  viability, T/C: 4.79%
[20]
  viability, T/C: 4.46%
[21]
  viability, T/C: 4.72%
[22]
  viability, T/C: 5.47%
Second compound 3.16 µM, first compound 0.00316 µM
  viability, T/C: 7.66%
Second compound 3.16 µM, first compound 0.01 µM
  viability, T/C: 5.09%
[23]
  viability, T/C: 4.84%
[24]
  viability, T/C: 4.62%
[25]
  viability, T/C: 4.32%
[26]
  viability, T/C: 5.85%
Second compound 10 µM, first compound 0.00316 µM
  viability, T/C: 6.16%
Second compound 10 µM, first compound 0.01 µM
  viability, T/C: 5.21%
[27]
  viability, T/C: 4.7%
[28]
  viability, T/C: 4.65%
[29]
  viability, T/C: 5.39%
[30]
  viability, T/C: 6.57%

## CC1COCCN1c1cc(C2(O)CC3CCC(C2)O3)c2cnn(-c3ccn[nH]3)c2n1 (stereo unspecified) + Cc1cccc(N(C)C(=O)C2C(O)CCN2c2nc(C)cc(C(F)(F)F)c2C#N)c1
[1]
  IC50: 43.3 nM
[2]
  IC50: 42.2 nM
[3]
  IC50: 44 nM
[4]
  IC50: 42.6 nM
[5]
  IC50: 37.7 nM
[6]
  IC50: < 31.6 nM
[7]
  viability, T/C: 64.5%
[8]
  viability, T/C: 11.7%
[9]
  viability, T/C: 6.18%
[10]
  viability, T/C: 3.85%
Second compound 0.0316 µM, first compound 3.16 µM
  viability, T/C: 4.2%
Second compound 0.0316 µM, first compound 10 µM
  viability, T/C: 4.79%
[11]
  viability, T/C: 63.9%
[12]
  viability, T/C: 8.95%
[13]
  viability, T/C: 5.9%
[14]
  viability, T/C: 3.73%
Second compound 0.1 µM, first compound 3.16 µM
  viability, T/C: 3.97%
Second compound 0.1 µM, first compound 10 µM
  viability, T/C: 3.76%
[15]
  viability, T/C: 65.4%
[16]
  viability, T/C: 12.1%
[17]
  viability, T/C: 4.75%
[18]
  viability, T/C: 3.38%
Second compound 0.316 µM, first compound 3.16 µM
  viability, T/C: 4.54%
Second compound 0.316 µM, first compound 10 µM
  viability, T/C: 3.64%
[19]
  viability, T/C: 63.3%
[20]
  viability, T/C: 12.2%
[21]
  viability, T/C: 5.42%
[22]
  viability, T/C: 3.92%
Second compound 1 µM, first compound 3.16 µM
  viability, T/C: 4.12%
Second compound 1 µM, first compound 10 µM
  viability, T/C: 4.45%
[23]
  viability, T/C: 57.4%
[24]
  viability, T/C: 9.6%
[25]
  viability, T/C: 5.36%
[26]
  viability, T/C: 3.46%
Second compound 3.16 µM, first compound 3.16 µM
  viability, T/C: 4.49%
Second compound 3.16 µM, first compound 10 µM
  viability, T/C: 4.05%
[27]
  viability, T/C: 45.9%
[28]
  viability, T/C: 8.7%
[29]
  viability, T/C: 4.15%
[30]
  viability, T/C: 3.16%
Second compound 10 µM, first compound 3.16 µM
  viability, T/C: 4.29%
Second compound 10 µM, first compound 10 µM
  viability, T/C: 3.09%
